# According to US8158628B2, “Sulfonylated 1,2,3,4-tetrahydropyrrolo[1,2-a]pyrazine compounds and their use as pharmaceuticals” (Gruenenthal GmbH, priority 2009, dated 2012):
# Assays:
# [1] = target: T1, B1R of the rat (Rattus norvegicus, UniProt P97583); assay: FLIPR Ca2+ functional assay, B1R antagonism, rat B1R in CHO K1 cells; format: cell-based; conditions: test substance 10 μM; rB1R CHO K1 cells; agonist Des-Arg9 bradykinin at EC80; % of maximum achievable inhibition
# T1 construct: expressed in transfected cells; host or cells: CHO K1 cells (Chinese hamster ovary), stably transfected
# T1 sequence (P97583 1-337): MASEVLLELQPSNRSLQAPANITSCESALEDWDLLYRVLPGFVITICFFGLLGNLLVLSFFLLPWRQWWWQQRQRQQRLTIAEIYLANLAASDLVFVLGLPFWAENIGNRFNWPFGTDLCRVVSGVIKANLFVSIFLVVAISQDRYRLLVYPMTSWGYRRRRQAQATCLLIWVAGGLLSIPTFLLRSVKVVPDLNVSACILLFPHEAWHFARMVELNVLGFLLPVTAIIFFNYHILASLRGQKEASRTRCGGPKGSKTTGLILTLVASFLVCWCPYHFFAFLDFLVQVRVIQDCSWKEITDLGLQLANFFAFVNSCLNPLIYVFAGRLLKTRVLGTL
# Summary of the method: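 Stably transfected CHO K1 cells loaded with Fluo-4; Ca2+ fluorescence read on FLIPR (ex 488/em 540 nm). Compound preincubated 10-20 min, then agonist at EC80: Lys-Des-Arg9 bradykinin (human) or Des-Arg9 bradykinin (rat). % inhibition vs maximal inhibition; IC50 from concentration series, n=2-3, N>=2.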
# [2] = target: T2, human B1R (Homo sapiens, UniProt P46663); assay: FLIPR Ca2+ functional assay, B1R antagonism, human B1R in CHO K1 cells; format: cell-based; conditions: test substance 10 μM; hB1R CHO K1 cells; agonist Lys-Des-Arg9 bradykinin at EC80; % of maximum achievable inhibition
# T2 construct: expressed in transfected cells; host or cells: CHO K1 cells (Chinese hamster ovary), stably transfected
# T2 sequence (P46663 1-353): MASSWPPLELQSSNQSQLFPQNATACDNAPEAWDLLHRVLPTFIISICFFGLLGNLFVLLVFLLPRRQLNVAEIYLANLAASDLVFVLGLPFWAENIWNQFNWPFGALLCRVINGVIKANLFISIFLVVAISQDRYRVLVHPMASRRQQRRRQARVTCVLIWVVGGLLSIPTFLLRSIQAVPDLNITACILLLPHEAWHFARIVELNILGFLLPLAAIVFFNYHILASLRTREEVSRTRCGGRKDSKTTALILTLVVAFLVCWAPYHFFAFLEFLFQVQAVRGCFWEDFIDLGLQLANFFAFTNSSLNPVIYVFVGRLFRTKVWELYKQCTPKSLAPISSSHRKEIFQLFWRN
# Description: The agonistic or antagonistic action of substances on the bradykinin 1 receptor (B1R) of the human and rat species can be quantified with ectopically expressing cell lines (CHO K1 cells) and with the aid of a Ca^2+-sensitive dye (Fluo-4) using a fluorescent imaging plate reader (FLIPR). The value in % activation is based on the Ca^2+ signal after addition of Lys-Des-Arg^9 bradykinin (0.5 nM) or Des-Arg^9 bradykinin (100 nM). Antagonists lead to a suppression of the Ca^2+ influx following administration of the agonist. The % inhibition in comparison with the maximum achievable inhibition is indicated.
# 1. Functional Investigation on the Bradykinin 1 Receptor (B1R) The agonistic or antagonistic action of substances can be determined on the bradykinin 1 receptor (B1R) of the human and rat species with the following assay. According to this assay, the Ca^2+ inflow through the channel is quantified with the aid of a Ca^2+-sensitive dye (Fluo-4 type, Molecular Probes Europe BV, Leiden, Netherlands) in a fluorescent imaging plate reader (FLIPR, Molecular Devices, Sunnyvale, USA). 2. Method: Chinese hamster ovary cells (CHO K1 cells) which are stably transfected with the human B1R gene (hB1R cells) or the B1R gene of the rat (rB1R cells) are used. For functional investigations these cells are plated-out onto black 96-well plates with a clear base (BD Biosciences, Heidelberg, Germany or Greiner, Frickenhausen, Germany) in a density of 20,000-35,000 cells/well. Overnight the cells are incubated at 37° C. and 5% CO2 in culture medium (hB1R cells: Ham's Nutrient Mixture F12, Gibco Invitrogen GmbH, Karlsruhe, Germany or DMEM, Sigma-Aldrich, Taufkirchen, Germany; rB1R cells: D-MEM/F12, Gibco Invitrogen, Karlsruhe, Germany) with 10 vol. % FBS (foetal bovine serum, Gibco Invitrogen GmbH, Karlsruhe, Germany or PAN Biotech GmbH, Aidenbach, Germany).
# On the following day the cells are loaded with 2.13 μM Fluo-4 (Molecular Probes Europe BV, Leiden, Netherlands) in HBSS buffer (Hank's buffered saline solution, Gibco Invitrogen GmbH, Karlsruhe, Germany) with 2.5 mM probenecid (Sigma-Aldrich, Taufkirchen, Germany) and 10 mM HEPES (Sigma-Aldrich, Taufkirchen, Germany) for 60 min at 37° C. The plates are subsequently washed twice with HBSS buffer, and HBSS buffer which additionally contains 0.1% BSA (bovine serum albumin; Sigma-Aldrich, Taufkirchen, Germany), 5.6 mM glucose and 0.05% gelatine (Merck KGaA, Darmstadt, Germany) is added. After a further incubation of 20 minutes at RT, the plates are inserted into the FLIPR for Ca^2+ measurement. Alternatively they are washed with buffer A (15 mM HEPES, 80 mM NaCl, 5 mM KCl, 1.2 mM CaCl2, 0.7 mM MgSO4, 2 g/l glucose, 2.5 mM probenecid) and loaded with buffer A with added 2.5 μM Fluo-4 and 0.025% Pluronic F127 (Sigma-Aldrich, Taufkirchen, Germany). The cells are then washed twice with buffer A and incubated for 30 minutes with buffer A, which additionally contains 0.05% BSA and 0.05% gelatine, at RT and then used for Ca^2+ measurement in the FLIPR. The Ca^2+-dependent fluorescence is measured here before and after addition of substances (λex=488 nm, λem=540 nm). The quantification is performed by measuring the highest fluorescence intensity (FC, fluorescence counts) over time.
# The FLIPR protocol comprises two additions of substance. Test substances (10 μM) are first pipetted onto the cells and the Ca^2+ inflow is compared with the control (hB1R: Lys-Des-Arg^9 bradykinin >=50 nM; rB1R: Des-Arg^9 bradykinin 10 μM). The value in % activation based on the Ca^2+ signal after addition of Lys-Des-Arg^9 bradykinin (>=50 nM) or Des-Arg^9 bradykinin (10 μM) is obtained therefrom. After incubation for 10-20 minutes, Lys-Des-Arg^9 bradykinin (hB1R) or Des-Arg^9 bradykinin (rB1R) is applied in the EC80 concentration and the inflow of Ca^2+ is likewise determined.
# Antagonists lead to a suppression of the Ca^2+ inflow. The % inhibition in comparison with the maximum achievable inhibition is calculated. […]
inhibition at 10 µM [1] [%],inhibition at 10 µM [2] [%],Structure (SMILES)
100,99.7,"Cc1ccc(S(=O)(=O)N2CCn3cccc3C2CC(=O)NC2CCc3cc(CN4CCN(C)CC4)ccc3C2)cc1Cl (centres unmarked) [Example 61, 2-[2-[(3-Chloro-4-methyl-phenyl)sulfonyl]-1,2,3,4-tetrahydro-pyrrolo[1,2-a]pyrazin-1-yl]-N-[6-[(4-methyl-piperazin-1-yl)-methyl]-1,2,3,4-tetrahydro-naphthalen-2-yl]-acetamide]"
103,97.5,"COc1cc(C)c(S(=O)(=O)N2CCn3cccc3C2COCC(=O)NC2CCN(c3ccncc3)CC2)c(C)c1 (centres unmarked) [Example 36, 2-[[2-[(4-Methoxy-2,6-dimethyl-phenyl)sulfonyl]-1,2,3,4-tetrahydro-pyrrolo[1,2-a]pyrazin-1-yl]-methoxy]-N-(1-pyridin-4-yl-piperidin-4-yl)-acetamide]"
51.4,54.6,"O=C(CC1c2cccn2CCN1S(=O)(=O)c1cccc(C(F)(F)F)c1)NC1CCCc2cc(CN3CCCc4ccccc43)ccc21 (centres unmarked) [Example 90, N-[6-(1,2,3,4-Tetrahydro-quinolin-1-yl-methyl)-1,2,3,4-tetrahydro-naphthalen-1-yl]-2-[2-[[3-(trifluoromethyl)phenyl]sulfonyl]-1,2,3,4-tetrahydro-pyrrolo[1,2-a]pyrazin-1-yl]-acetamide]"
99.4,99.8,"Cc1ccc(S(=O)(=O)N2CCn3cccc3C2CC(=O)NC2CCCc3cc(CN4CCN(C)CC4)ccc32)cc1Cl (centres unmarked) [Example 55, 2-[2-[(3-Chloro-4-methyl-phenyl)sulfonyl]-1,2,3,4-tetrahydro-pyrrolo[1,2-a]pyrazin-1-yl]-N-[6-[(4-methyl-piperazin-1-yl)-methyl]-1,2,3,4-tetrahydro-naphthalen-1-yl]-acetamide]"
99.1,100,"O=C(CC1c2cccn2CCN1S(=O)(=O)c1cccc(C(F)(F)F)c1)NC1CCCc2cc(CN3CCCCC3)ccc21 (centres unmarked) [Example 89, N-[6-(Piperidin-1-yl-methyl)-1,2,3,4-tetrahydro-naphthalen-1-yl]-2-[2-[[3-(trifluoromethyl)phenyl]sulfonyl]-1,2,3,4-tetrahydro-pyrrolo[1,2-a]pyrazin-1-yl]-acetamide]"
102,97.8,"COc1ccc2cc(S(=O)(=O)N3CCn4cccc4C3CC(=O)NC3CCCc4cc(CN5CCOCC5)ccc43)ccc2c1 (centres unmarked) [Example 120, 2-[2-[(6-Methoxy-naphthalen-2-yl)sulfonyl]-1,2,3,4-tetrahydro-pyrrolo[1,2-a]pyrazin-1-yl]-N-[6-(morpholin-4-yl-methyl)-1,2,3,4-tetrahydro-naphthalen-1-yl]-acetamide]"
-29.2,99.7,"CNCc1ccc2c(c1)CCCC2NC(=O)CC1c2cccn2CCN1S(=O)(=O)c1ccc(C)c(Cl)c1 (centres unmarked) [Example 136, 2-[2-[(3-Chloro-4-methyl-phenyl)sulfonyl]-1,2,3,4-tetrahydro-pyrrolo[1,2-a]pyrazin-1-yl]-N-[6-(methylamino-methyl)-1,2,3,4-tetrahydro-naphthalen-1-yl]-acetamide]"
104,99.6,"CNCc1ccc2c(c1)CCCC2NC(=O)CC1c2cccn2CCN1S(=O)(=O)c1cccc(C(F)(F)F)c1 (centres unmarked) [Example 135, N-[6-(Methylamino-methyl)-1,2,3,4-tetrahydro-naphthalen-1-yl]-2-[2-[[3-(trifluoromethyl)phenyl]sulfonyl]-1,2,3,4-tetrahydro-pyrrolo[1,2-a]pyrazin-1-yl]-acetamide]"
101,99.8,"CCC(C)NCc1ccc2c(c1)CCCC2NC(=O)CC1c2cccn2CCN1S(=O)(=O)c1cccc(C(F)(F)F)c1 (centres unmarked) [Example 131, N-[6-[(1-Methyl-propylamino)-methyl]-1,2,3,4-tetrahydro-naphthalen-1-yl]-2-[2-[[3-(trifluoromethyl)phenyl]sulfonyl]-1,2,3,4-tetrahydro-pyrrolo[1,2-a]pyrazin-1-yl]-acetamide]"
105,99.6,"COc1ccc2cc(S(=O)(=O)N3CCn4cccc4C3CC(=O)NC3Cc4ccc(CN5CCCCC5)cc4C3)ccc2c1 (centres unmarked) [Example 48, 2-(2-(6-methoxynaphthalen-2-ylsulfonyl)-1,2,3,4-tetrahydropyrrolo-[1,2-a]pyrazin-1-yl)-N-(5-(piperidin-1-ylmethyl)-2,3-dihydro-1H-inden-2-yl)-acetamide]"
97.1,99.8,"CN(Cc1ccc2c(c1)CCCC2NC(=O)CC1c2cccn2CCN1S(=O)(=O)c1cccc(C(F)(F)F)c1)C(C)(C)C (centres unmarked) [Example 113, N-[6-[(tert-Butyl-methyl-amino)-methyl]-1,2,3,4-tetrahydro-naphthalen-1-yl]-2-[2-[[3-(trifluoromethyl)phenyl]sulfonyl]-1,2,3,4-tetrahydro-pyrrolo[1,2-a]pyrazin-1-yl]-acetamide]"
101,97.4,"Cc1ccc(S(=O)(=O)N2CCn3cccc3C2CC(=O)NC2CCCc3cc(CNCc4ccccc4)ccc32)cc1 (centres unmarked) [Example 127, N-[6-[(Benzylamino)-methyl]-1,2,3,4-tetrahydro-naphthalen-1-yl]-2-[2-(p-tolylsulfonyl)-1,2,3,4-tetrahydro-pyrrolo[1,2-a]pyrazin-1-yl]-acetamide]"
103,99.8,"CNCc1ccc2c(c1)CCCC2NC(=O)CC1c2cccn2CCN1S(=O)(=O)c1ccc2cc(OC)ccc2c1 (centres unmarked) [Example 134, 2-[2-[(6-Methoxy-naphthalen-2-yl)sulfonyl]-1,2,3,4-tetrahydro-pyrrolo[1,2-a]pyrazin-1-yl]-N-[6-(methylamino-methyl)-1,2,3,4-tetrahydro-naphthalen-1-yl]-acetamide]"
